In PMC12337661, “PIEZO1 mechanical insensitivity in generalized lymphatic dysplasia with the potential for pharmacological rescue” (iScience, 2025):
In brackets after ≈: the same amount, converted by molar mass. Several values for one entry are separate records, joined by “and”; a condition that tells them apart may be missing. Identical values can stand only once.

Assays:
[1] = Mouse microsomal stability; type: in vitro ADME; conditions: mouse microsomes
Procedure: (§1) Aqueous solubility, mouse microsomal stability and mouse plasma protein binding assays were performed by Malvern Panalytical (UK) as previously described.[29]

[2] = Aqueous (kinetic) solubility; type: physicochemical; conditions: pH 7.4, aqueous buffer, kinetic from dmso stock; physiological pH in PBS
Procedure: as §1

WT mPIEZO1 = molecular target: T1, WT mPIEZO1 (Mus musculus, UniProt E2JF22); experiment: Long substance exposure and hypo-osmolality protocol Ca2+ assay; type: cell-based; conditions: 10 μM, 20-min exposure, hypotonic assay
T1 construct: expressed in transfected cells
Procedure: For intracellular Ca^2+ assays, cells were plated at 80–90% confluence in 96-well plates 24 h prior to recordings (6–8 × 10^4 cells per well). […] Cells were washed with SBS and incubated at room temperature for 20 min prior to recordings. Equal volumes of 2x concentrated compounds were injected to test for acute channel activation. Pre-incubation with compounds occurred during the 20 min prior to recordings. To expose cell membranes to hypo-osmolality, an equal volume of hypotonic SBS (containing only 35 mM NaCl) was injected onto the cells. Measurements were made on a fluorescence plate reader (Flexstation III, Molecular Devices) at room temperature (21 ± 2°C). Fura-2 was excited at 340 nm and 380 nm and emitted light collected at 510 nm, with measurements shown as the change in fluorescence (F) ratio (ΔF340/380).
SI Figure S5: Hypo-osm ol al it y test in the Ca2+ assay, referred to in the main paper
(a) Typical 96-well plate mean ± s.e.m. data for changes in intracellular Ca2+ evoked by hypotonic (35 mM NaCl) or normotonic (135 mM NaCl) medium for WT- or Empty vector-transfected cells in increasing concentrations of Yoda1 as indicated and colour -coded on t he right (representative of n = 3-6 independent experiments). […]

G1994D mPIEZO1 [3] = molecular target: T2, G1994D mPIEZO1 (Mus musculus, UniProt E2JF22, G1994D); experiment: Long substance exposure (20 min exposure) Ca2+ assay; type: cell-based
T2 construct: expressed in transfected cells
Excerpt: Supplement mmc2.xlsx, sheet "Figure 5e" | column: Mean normalise fluorescence

G1994D mPIEZO1 [4] = molecular target: T2, G1994D mPIEZO1; experiment: Outside-out patch recording with pressure pulses; type: cell-based; conditions: for Currents at given pressure / Pressure-response, individual cells (Figure 5f) / Mean (pressure-response, Figure 5f): G1994D + Yoda1; for Pressure-response, individual cells (Figure 5f): cell1-cell10; for Mean (pressure-response, Figure 5f): mean of cells 1-10;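 as to Mean (pressure-response, Figure 5f): peak current normalised to each patch's maximum peak current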;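 as to Pressure-response, individual cells (Figure 5f): peak current normalised to each patch's maximum peak current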
Procedure: (§2) Ionic currents were recorded through outside-out patches from cells using standard patch-clamp techniques in voltage-clamp mode. Patch pipettes were fire-polished and had resistance of 4–7 MΩ when filled with pipette solution. Ionic solution of composition (mM) NaCl 140, HEPES 10 and EGTA 5 (titrated to pH 7.4 using NaOH) was used in both the pipette and bath. Recordings were at a constant holding potential of −80 mV. 200-ms pressure steps were applied to the patch pipette with an interval of 12 s using High Speed Pressure Clamp HSPC-1 System (ALA Scientific Instruments, USA). All recordings were made with an Axopatch-200B amplifier (Axon Instruments, Inc., USA) equipped with Digidata 1550B and pClamp (v10.6) software (Molecular Devices, USA) at room temperature (21 ± 2°C). Currents were filtered at 2–5 kHz and digitally sampled at 5–20 kHz.

R2351Q mPIEZO1 = molecular target: T3, R2351Q mPIEZO1 (Mus musculus, UniProt E2JF22, R2351Q); experiment: Outside-out patch recording with pressure pulses; type: cell-based
T3 construct: expressed in transfected cells
Procedure: as §2

I2286T mPIEZO1 = molecular target: T4, I2286T mPIEZO1 (Mus musculus, UniProt E2JF22, I2286T); experiment: Outside-out patch recording with pressure pulses; type: cell-based; conditions: 5 μM; for current (example trace): 75 mmHg pulses
T4 construct: expressed in transfected cells
Procedure: as §2

[5] = set-up: method as in PMID 36457143, PMID 38716967, PMID 39402010; conditions: cited from earlier work

T4 sequence (E2JF22 whole entry I2286T): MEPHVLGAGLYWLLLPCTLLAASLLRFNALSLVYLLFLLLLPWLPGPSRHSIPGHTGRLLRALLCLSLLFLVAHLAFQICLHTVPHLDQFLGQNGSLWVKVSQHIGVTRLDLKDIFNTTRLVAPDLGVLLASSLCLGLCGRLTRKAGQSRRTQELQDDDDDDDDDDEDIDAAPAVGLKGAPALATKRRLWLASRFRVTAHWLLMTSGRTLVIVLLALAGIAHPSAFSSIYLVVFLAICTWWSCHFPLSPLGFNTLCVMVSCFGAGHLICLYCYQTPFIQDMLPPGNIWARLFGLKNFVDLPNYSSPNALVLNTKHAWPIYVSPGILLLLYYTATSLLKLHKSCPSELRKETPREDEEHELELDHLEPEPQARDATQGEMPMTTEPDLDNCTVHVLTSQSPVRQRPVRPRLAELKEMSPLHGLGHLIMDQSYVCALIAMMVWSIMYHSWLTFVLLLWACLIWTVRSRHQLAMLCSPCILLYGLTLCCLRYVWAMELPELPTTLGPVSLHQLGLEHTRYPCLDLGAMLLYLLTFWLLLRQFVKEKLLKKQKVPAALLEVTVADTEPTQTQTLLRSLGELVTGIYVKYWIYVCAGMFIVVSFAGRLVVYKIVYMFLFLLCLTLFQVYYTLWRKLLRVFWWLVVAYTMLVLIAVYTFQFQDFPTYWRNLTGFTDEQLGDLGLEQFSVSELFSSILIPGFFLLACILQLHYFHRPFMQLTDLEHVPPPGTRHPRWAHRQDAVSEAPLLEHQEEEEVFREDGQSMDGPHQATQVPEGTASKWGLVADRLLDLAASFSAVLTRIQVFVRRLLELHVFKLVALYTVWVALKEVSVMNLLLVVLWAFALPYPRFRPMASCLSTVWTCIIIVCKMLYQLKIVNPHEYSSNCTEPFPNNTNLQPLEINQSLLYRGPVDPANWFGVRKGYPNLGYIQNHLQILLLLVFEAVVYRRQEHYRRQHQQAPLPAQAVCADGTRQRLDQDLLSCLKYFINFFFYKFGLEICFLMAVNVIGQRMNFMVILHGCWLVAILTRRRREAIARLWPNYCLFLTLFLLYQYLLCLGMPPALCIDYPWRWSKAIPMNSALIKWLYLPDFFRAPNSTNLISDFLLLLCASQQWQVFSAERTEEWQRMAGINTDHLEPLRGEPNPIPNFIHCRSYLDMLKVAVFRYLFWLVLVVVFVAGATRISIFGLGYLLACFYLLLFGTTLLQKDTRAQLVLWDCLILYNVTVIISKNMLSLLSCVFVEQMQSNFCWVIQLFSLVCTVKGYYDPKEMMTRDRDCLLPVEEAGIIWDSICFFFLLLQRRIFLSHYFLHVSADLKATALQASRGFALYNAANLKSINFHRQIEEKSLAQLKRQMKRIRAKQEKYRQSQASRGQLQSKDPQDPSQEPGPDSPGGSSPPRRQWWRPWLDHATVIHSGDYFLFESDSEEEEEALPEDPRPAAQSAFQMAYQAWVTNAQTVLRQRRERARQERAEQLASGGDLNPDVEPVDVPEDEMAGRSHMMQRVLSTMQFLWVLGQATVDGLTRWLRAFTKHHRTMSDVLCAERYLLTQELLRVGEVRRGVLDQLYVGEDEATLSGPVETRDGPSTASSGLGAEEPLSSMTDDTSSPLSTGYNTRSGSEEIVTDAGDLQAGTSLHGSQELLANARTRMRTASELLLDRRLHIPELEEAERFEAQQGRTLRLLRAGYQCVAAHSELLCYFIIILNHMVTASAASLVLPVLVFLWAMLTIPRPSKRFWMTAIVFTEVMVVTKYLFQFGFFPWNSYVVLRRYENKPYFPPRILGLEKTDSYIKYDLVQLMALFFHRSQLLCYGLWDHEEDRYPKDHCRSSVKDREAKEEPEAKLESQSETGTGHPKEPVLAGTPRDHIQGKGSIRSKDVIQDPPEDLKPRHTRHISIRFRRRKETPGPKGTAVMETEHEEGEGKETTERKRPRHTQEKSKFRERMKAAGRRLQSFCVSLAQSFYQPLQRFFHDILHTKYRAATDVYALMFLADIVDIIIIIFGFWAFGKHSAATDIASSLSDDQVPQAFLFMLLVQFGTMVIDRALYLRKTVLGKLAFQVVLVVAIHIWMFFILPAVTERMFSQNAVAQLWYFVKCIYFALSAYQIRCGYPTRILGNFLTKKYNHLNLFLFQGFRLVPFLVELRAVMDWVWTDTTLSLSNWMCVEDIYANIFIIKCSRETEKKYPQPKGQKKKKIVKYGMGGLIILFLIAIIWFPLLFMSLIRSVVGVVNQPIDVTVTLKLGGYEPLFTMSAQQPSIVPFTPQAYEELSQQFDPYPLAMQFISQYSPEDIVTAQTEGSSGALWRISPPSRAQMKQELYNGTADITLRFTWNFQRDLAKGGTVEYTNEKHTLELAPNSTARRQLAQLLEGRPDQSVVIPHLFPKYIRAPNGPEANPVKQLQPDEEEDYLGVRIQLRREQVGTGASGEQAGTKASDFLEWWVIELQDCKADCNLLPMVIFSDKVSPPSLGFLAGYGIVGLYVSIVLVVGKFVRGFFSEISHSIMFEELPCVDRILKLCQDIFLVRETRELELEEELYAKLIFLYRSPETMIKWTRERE
T2 sequence (E2JF22 whole entry G1994D): as the sequence (E2JF22 whole entry I2286T) above, with G1994D, T2286I counted along it
T3 sequence (E2JF22 whole entry R2351Q): as the sequence (E2JF22 whole entry I2286T) above, with T2286I, R2351Q counted along it
T1 sequence (E2JF22 whole entry): as the sequence (E2JF22 whole entry I2286T) above, with T2286I counted along it

For O=C(O)c1ccc(-c2cnc(SCc3c(Cl)cccc3Cl)s2)cc1 [Yoda2b, 4-(2-([(2,6-Dichlorophenyl)methyl]sulfanyl)-1,3-thiazol-5-yl)benzoic acid], which half-life [1] is on record?
Its half-life is 7.2 min.

And the solubility kinetic [2]?
The solubility kinetic was 6.1 µM (≈ 2.42 µg/mL).

And the “more effective than Yoda1 under the hypotonic condition” value (WT mPIEZO1)?
Its value is “about 25%”.

For Clc1cccc(Cl)c1CSc1nnc(-c2cnccn2)s1 [Yoda1], which “Mean normalise fluorescence (Figure 5e)” value (G1994D mPIEZO1 [3]; Yoda1 concentration 0.03 µM) is on record?
The value was 0.2099.

And the “Mean normalise fluorescence (Figure 5e)” value (G1994D mPIEZO1 [3]; Yoda1 concentration 0.1 µM)?
Its value is 0.1039.

And the “Mean normalise fluorescence (Figure 5e)” value (G1994D mPIEZO1 [3]; Yoda1 concentration 0.3 µM)?
The value was 0.5452.

And the “Mean normalise fluorescence (Figure 5e)” value (G1994D mPIEZO1 [3]; Yoda1 concentration 1 µM)?
The value was 1.026.

And the “Mean normalise fluorescence (Figure 5e)” value (G1994D mPIEZO1 [3]; Yoda1 concentration 3 µM)?
The value was 1.

What about the “Mean normalise fluorescence (Figure 5e)” value (G1994D mPIEZO1 [3]; Yoda1 concentration 10 µM) of the same compound?
The value was 1.103.

And the “Currents at given pressure” value (G1994D mPIEZO1 [4]; 0 mmHg, time 200.1 ms)?
Its value is -1.831 pA.

What about the “Currents at given pressure” value (G1994D mPIEZO1 [4]; 0 mmHg, time 200.15 ms) of the same compound?
The value was 0.2743 pA.

What about the “Currents at given pressure” value (G1994D mPIEZO1 [4]; 0 mmHg, time 200.2 ms) of the same compound?
The value was -1.526 pA.

What about the “Currents at given pressure” value (G1994D mPIEZO1 [4]; 15 mmHg, time 200.1 ms) of the same compound?
Its value is 1.03 pA.

What about the “Currents at given pressure” value (G1994D mPIEZO1 [4]; 15 mmHg, time 200.15 ms) of the same compound?
Its value is -0.5571 pA.

What about the “Currents at given pressure” value (G1994D mPIEZO1 [4]; 15 mmHg, time 200.2 ms) of the same compound?
The value was -0.1298 pA.

What about the “Currents at given pressure” value (G1994D mPIEZO1 [4]; 30 mmHg, time 200.1 ms) of the same compound?
Its value is -11.9666 pA.

And the “Currents at given pressure” value (G1994D mPIEZO1 [4]; 30 mmHg, time 200.15 ms)?
The value was -9.769 pA.

What about the “Currents at given pressure” value (G1994D mPIEZO1 [4]; 30 mmHg, time 200.2 ms) of the same compound?
The value was -5.161 pA.

And the “Currents at given pressure” value (G1994D mPIEZO1 [4]; 45 mmHg, time 200.1 ms)?
The value was -2.0839 pA.

What about the “Currents at given pressure” value (G1994D mPIEZO1 [4]; 45 mmHg, time 200.15 ms) of the same compound?
The value was -0.6801 pA.

And the “Currents at given pressure” value (G1994D mPIEZO1 [4]; 45 mmHg, time 200.2 ms)?
The value was -0.497 pA.

What about the “Currents at given pressure” value (G1994D mPIEZO1 [4]; 60 mmHg, time 200.1 ms) of the same compound?
Its value is 1.1543 pA.

What about the “Currents at given pressure” value (G1994D mPIEZO1 [4]; 60 mmHg, time 200.15 ms) of the same compound?
The value was -0.9209 pA.

What about the “Currents at given pressure” value (G1994D mPIEZO1 [4]; 60 mmHg, time 200.2 ms) of the same compound?
Its value is -0.8599 pA.

And the “Currents at given pressure” value (G1994D mPIEZO1 [4]; 75 mmHg, time 200.1 ms)?
Its value is -0.6364 pA.

And the “Currents at given pressure” value (G1994D mPIEZO1 [4]; 75 mmHg, time 200.15 ms)?
The value was 0.6148 pA.

And the “Currents at given pressure” value (G1994D mPIEZO1 [4]; 75 mmHg, time 200.2 ms)?
Its value is 0.06549 pA.

And the “Currents at given pressure” value (G1994D mPIEZO1 [4]; 90 mmHg, time 200.1 ms)?
Its value is -1.92 pA.

What about the “Currents at given pressure” value (G1994D mPIEZO1 [4]; 90 mmHg, time 200.15 ms) of the same compound?
The value was -2.409 pA.

What about the “Currents at given pressure” value (G1994D mPIEZO1 [4]; 90 mmHg, time 200.2 ms) of the same compound?
The value was -0.1504 pA.

And the “Currents at given pressure” value (G1994D mPIEZO1 [4]; 105 mmHg, time 200.1 ms)?
Its value is -0.4419 pA.

What about the “Currents at given pressure” value (G1994D mPIEZO1 [4]; 105 mmHg, time 200.15 ms) of the same compound?
The value was -1.449 pA.

And the “Currents at given pressure” value (G1994D mPIEZO1 [4]; 105 mmHg, time 200.2 ms)?
The value was 0.2905 pA.

What about the “Pressure-response, individual cells (Figure 5f)” value (shortened to “Pressure-response … (Figure 5f)”) (G1994D mPIEZO1 [4]; pressure 0 mmHg) of the same compound?
The value was 1.59E-17 and -8.38E-17 and 0 (4×) and -2.96E-17 and -2.69E-17 and -3.91E-17 and 3.74E-17.

And the “Mean (pressure-response, Figure 5f)” value (G1994D mPIEZO1 [4]; pressure 0 mmHg)?
Its value is -1.26E-17.

What about the “Pressure-response … (Figure 5f)” value (G1994D mPIEZO1 [4]; pressure 15 mmHg) of the same compound?
Its value is 0.08197 and 0.01125 and 0.01265 and 0.01555 and 0.01655 and 0.00717 and 0.01084 and 0.05939 and 0.00309 and 0.1064.

What about the “Mean (pressure-response, Figure 5f)” value (G1994D mPIEZO1 [4]; pressure 15 mmHg) of the same compound?
Its value is 0.03249.

And the “Pressure-response … (Figure 5f)” value (G1994D mPIEZO1 [4]; pressure 30 mmHg)?
The value was 0.03806 and -0.00981 and 0.03807 and 0.05062 and 0.03544 and 0.00903 and 0.00593 and 0.02358 and 0.08822 and 0.1193.

What about the “Mean (pressure-response, Figure 5f)” value (G1994D mPIEZO1 [4]; pressure 30 mmHg) of the same compound?
The value was 0.03984.

And the “pressure for 50% activation (P50), Boltzmann mid-point” value (G1994D mPIEZO1 [4]; in 5 μM Yoda1, -80 mV)?
The value was 64.0 mmHg.

What about the “mechanical activation in the presence of the compound” value (R2351Q mPIEZO1; 5 μM, 75 mmHg pressure pulses) of the same compound?
The value was “robust mechanical activation of the variant channels”.

What about the “currents at given condition, individual cells (cell1-cell7)” value (R2351Q mPIEZO1; R2351Q, Yoda1, Figure 4e) of the same compound?
Its value is -87.925 pA and -24.5178 pA and -36.1129 pA and -20.7822 pA and -20.109 pA and -65.4339 pA and -114.364 pA.

And the “currents at given condition, Mean” value (R2351Q mPIEZO1; R2351Q, Yoda1, mean of 7 cells, Figure 4e)?
Its value is -52.7493 pA.

What about the “mechanical activation in the presence of the compound” value (I2286T mPIEZO1; 75 mmHg pressure pulses) of the same compound?
Its value is “pressure-evoked current now occurred”.

What about the “current (example trace)” value (I2286T mPIEZO1; time 30.5 ms) of the same compound?
The value was -0.41 pA.

What about the “current (example trace)” value (I2286T mPIEZO1; time 30.5002 ms) of the same compound?
Its value is -0.2269 pA.

And the “current (example trace)” value (I2286T mPIEZO1; time 30.5004 ms)?
The value was -0.5932 pA.

And the “maximum amplitude of current evoked by the pressure pulse, Mean” value (I2286T mPIEZO1; 75 mmHg, -80 mV, n = 7)?
The value was -80.8694 pA.

What about the aqueous solubility limit [5] of the same compound?
Its aqueous solubility limit is about 2 µM (≈ 0.711 µg/mL).
